Tests used:
Experiment in all cases: KINOMEscan
Type in all cases: binding
Details in all cases: 1000 nM
[1] = tested on: ABL1(Q252H)-nonphosphorylated
[2] = tested on: ABL1(T315I)-nonphosphorylated
[3] = tested on: ABL1-nonphosphorylated
[4] = tested on: ABL2
[5] = tested on: ASK1
[6] = tested on: CAMK1B
[7] = tested on: CDK2
[8] = tested on: CDKL2
[9] = tested on: CSNK1E
[10] = tested on: DCAMKL3
[11] = biological target: T1, EGFR (Homo sapiens, UniProt P00533)
T1 construct: purchased Invitrogen (Carlsbad, CA, USA)

[12] = tested on: EGFR(L858R)
[13] = tested on: EPHA1
[14] = tested on: EPHA3
[15] = tested on: EPHA5
[16] = tested on: ERK4
[17] = tested on: FES
[18] = tested on: FRK
[19] = tested on: HIPK4
[20] = tested on: IRAK3
[21] = tested on: IRAK4
[22] = tested on: JAK1(JH1domain-catalytic)
[23] = tested on: JAK1(JH2domain-pseudokinase)
[24] = tested on: JNK2
[25] = tested on: KIT
[26] = tested on: LATS2
[27] = tested on: LIMK1
[28] = tested on: LIMK2
[29] = tested on: MAP3K4
[30] = tested on: MEK2
[31] = tested on: MERTK
[32] = tested on: MKNK1
[33] = tested on: MLK3
[34] = tested on: MST2
[35] = tested on: MYO3A
[36] = tested on: NDR2
[37] = tested on: NEK1
[38] = tested on: NEK2
[39] = tested on: PAK2
[40] = tested on: PCTK1
[41] = tested on: PIK3CA(H1047L)
[42] = tested on: PIK3CA(Q546K)
[43] = tested on: ROS1
[44] = tested on: RSK4(Kin.Dom.1-N-terminal)
[45] = tested on: S6K1
[46] = tested on: SLK
[47] = tested on: SRC
[48] = tested on: SRMS
[49] = tested on: SYK

T1 sequence (P00533 25-1210): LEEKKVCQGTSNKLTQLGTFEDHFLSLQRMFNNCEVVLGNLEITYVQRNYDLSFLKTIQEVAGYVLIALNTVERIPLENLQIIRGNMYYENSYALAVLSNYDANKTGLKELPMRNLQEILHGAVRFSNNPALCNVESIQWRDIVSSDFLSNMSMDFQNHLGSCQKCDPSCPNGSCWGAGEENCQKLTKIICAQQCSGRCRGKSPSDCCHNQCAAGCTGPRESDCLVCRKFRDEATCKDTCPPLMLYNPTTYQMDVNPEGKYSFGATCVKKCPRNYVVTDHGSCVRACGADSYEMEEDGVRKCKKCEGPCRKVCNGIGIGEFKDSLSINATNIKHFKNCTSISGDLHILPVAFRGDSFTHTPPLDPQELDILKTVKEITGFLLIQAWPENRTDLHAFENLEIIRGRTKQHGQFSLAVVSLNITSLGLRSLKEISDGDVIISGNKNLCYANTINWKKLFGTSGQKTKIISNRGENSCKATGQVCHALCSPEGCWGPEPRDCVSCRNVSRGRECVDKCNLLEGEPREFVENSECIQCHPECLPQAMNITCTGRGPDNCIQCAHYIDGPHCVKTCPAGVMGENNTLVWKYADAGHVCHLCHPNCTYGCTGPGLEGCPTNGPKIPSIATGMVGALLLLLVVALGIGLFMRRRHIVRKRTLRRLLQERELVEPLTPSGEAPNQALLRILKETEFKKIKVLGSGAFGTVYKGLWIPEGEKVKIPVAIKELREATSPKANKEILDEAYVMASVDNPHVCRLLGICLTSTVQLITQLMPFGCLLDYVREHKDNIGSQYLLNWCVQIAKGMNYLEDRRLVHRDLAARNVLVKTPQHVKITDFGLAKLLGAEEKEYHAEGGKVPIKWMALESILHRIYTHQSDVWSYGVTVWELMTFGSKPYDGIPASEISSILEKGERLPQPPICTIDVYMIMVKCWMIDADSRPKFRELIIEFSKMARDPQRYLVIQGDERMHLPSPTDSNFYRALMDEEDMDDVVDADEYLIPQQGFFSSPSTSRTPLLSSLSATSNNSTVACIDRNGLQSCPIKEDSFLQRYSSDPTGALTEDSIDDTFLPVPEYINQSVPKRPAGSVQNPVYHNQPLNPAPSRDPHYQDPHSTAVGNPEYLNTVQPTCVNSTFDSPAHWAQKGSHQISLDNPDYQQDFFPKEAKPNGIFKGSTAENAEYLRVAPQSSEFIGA

Structure (SMILES): C=CC(=O)Nc1cc(Nc2cc(-c3cccc(NC(=O)c4cc5c(s4)CCCC5)c3C)cn(C)c2=O)ccc1N1CCN(CC)CC1 [CHMFL-BTK-85]
- Percent Control [1]: 84%
- Percent Control [2]: 94%
- Percent Control [3]: 76%
- Percent Control [4]: 88%
- Percent Control [5]: 86%
- Percent Control [6]: 100%
- Percent Control [7]: 85%
- Percent Control [8]: 98%
- Percent Control [9]: 95%
- Percent Control [10]: 100%
- kinase binding remaining (percent of control) at 1 µM [11]: 58%
- Percent Control [12]: 59%
- Percent Control [13]: 90%
- Percent Control [14]: 98%
- Percent Control [15]: 100%
- Percent Control [16]: 100%
- Percent Control [17]: 98%
- Percent Control [18]: 19%
- Percent Control [19]: 91%
- Percent Control [20]: 100%
- Percent Control [21]: 100%
- Percent Control [22]: 96%
- Percent Control [23]: 96%
- Percent Control [24]: 100%
- Percent Control [25]: 92%
- Percent Control [26]: 100%
- Percent Control [27]: 98%
- Percent Control [28]: 100%
- Percent Control [29]: 92%
- Percent Control [30]: 100%
- Percent Control [31]: 84%
- Percent Control [32]: 100%
- Percent Control [33]: 91%
- Percent Control [34]: 88%
- Percent Control [35]: 93%
- Percent Control [36]: 34%
- Percent Control [37]: 95%
- Percent Control [38]: 99%
- Percent Control [39]: 100%
- Percent Control [40]: 100%
- Percent Control [41]: 100%
- Percent Control [42]: 100%
- Percent Control [43]: 98%
- Percent Control [44]: 100%
- Percent Control [45]: 100%
- Percent Control [46]: 95%
- Percent Control [47]: 77%
- Percent Control [48]: 85%
- Percent Control [49]: 100%

— publication PMC7490411 (Signal Transduction and Targeted Therapy, 2020)
